From US20090215725A1, “Substituted 4-aminocyclohexane derivatives” (GRUNENTHAL GMBH, priority 2008, published 2009)

System: Male Sprague Dawley rats
Assay: Chung model: mononeuropathic pain after spinal nerve ligation (mechanical allodynia, von Frey withdrawal threshold)
Assay type: in vivo
Conditions: rat, FIG. 1

CN(C)C1(c2ccccc2)CCC(COCc2c[nH]c3ccc(F)cc23)CC1 (stereo not drawn) [Example 10, 1-Phenyl-4-(((5-fluoro-1H-indol-3-yl)methoxy)methyl)-N,N-dimethylcyclohexanamine]
effect on the undamaged, contralateral side (contralateral rear paw, tested dose): only a very small and statistically insignificant effect
rise in the withdrawal threshold (ipsilateral rear paw, spinal nerve ligation, allodynia fall from approx. 55 g to 25 g): over 40 g
allodynia condition (effectiveness in neuropathic pain) (ipsilateral side, spinal nerve ligation): almost completely relieved
